37 compounds from patent US20240131028A1, “CHEMOVACCINATION AGAINST PLASMODIUM INFECTION WITH SELECTIVE PLASMEPSIN X INHIBITORS” (Merck Sharp & Dohme LLC, priority 2021, published 2024) can be followed below.

For orientation: EC50 means the concentration needed to bring the measured effect to its halfway point.

Each structure is given as a SMILES string.

The first assay relates to ring stage parasites (Pf). The experiment in a line: Parasite lactate dehydrogenase (LDH) growth assay (Parasite Assay, PfLDH Assay). Conditions: Plasmodium falciparum, 72 h, Table 3; 72 hours growth, LDH readout; read-out: EC50. The class given is cell-based, P. falciparum.
`CC[C@]1(C)CC(=O)N([C@H](CCOC)[C@H]2C[C@@H]2C(=O)N[C@H]2CC(C)(C)Oc3ccc(C)cc32)C(=N)N1` [Example 123]: the EC50 came out at 2 nM.
Still for that read-out and setting: under `Cc1cc2c(cc1Cl)[C@@H](NC(=O)[C@H]1C[C@@H]1CN1C(=N)NC(C)(C)CC1=O)CC(C)(C)O2` [Example 136] stands 160 nM; under `CC1(C)CC(=O)N([C@H](c2cccnc2)[C@H]2C[C@@H]2C(=O)NC2CC(C)(C)Oc3cc(F)ccc32)C(=N)N1` (stereo partly shown) [Example 77A], 1.7 nM; under `COCC[C@H]([C@H]1C[C@@H]1C(=O)NC1CC(C)(C)Oc2c(F)cccc21)N1C(=N)NC(C)(C)CC1=O` (stereo partly shown) [Example 111A], 24 nM.
The same measure, in the same setting: then `CC1(C)CC(=O)N([C@H](c2ccc(C#N)cc2)[C@H]2C[C@@H]2C(=O)N[C@H]2CC(C)(C)Oc3ccccc32)C(=N)N1` [Example 45A], with 2.8 nM.
Same read-out and setting: then `CC1(C)CC(=O)N(C[C@H]2C[C@@H]2C(=O)N[C@H]2CC(C3CC3)Oc3ccccc32)C(=N)N1` (stereo partly shown) [Example 140A], with 220 nM; and `CC1(C)CC(=O)N(C(c2cccnc2)[C@@H]2[C@@H](C(=O)N[C@H]3CC(C)(C)Oc4ccccc43)C2(C)C)C(=N)N1` (stereo partly shown) [Example 49A], with 20 nM.
`CC1(C)CC(=O)N([C@H](c2cccnc2)[C@H]2C[C@@H]2C(=O)NC2CC(C)(C)Oc3c(Cl)cccc32)C(=N)N1` (stereo partly shown) [Example 121A]: the half-maximal effective concentration (EC50) is 2.5 nM.
In the case of `Cc1ccc2c(c1)OC(C)(C)C[C@@H]2NC(=O)[C@H]1C[C@@H]1[C@@H](c1cccnc1)N1C(=N)NC(C)(C)CC1=O` [Example 85A], the EC50 is 2.4 nM.
On to `COCC[C@H]([C@H]1C[C@@H]1C(=O)N[C@H]1CCOc2ccccc21)N1C(=N)N[C@](C)(C(C)C)CC1=O` [Example 22], for which the EC50 came to 44 nM.
On the same count and under the same terms, then `CCC1(CC)CC(=O)N([C@H](CCOC)[C@H]2C[C@@H]2C(=O)N[C@@H]2CC(C)(C)Oc3ccccc32)C(=N)N1` [Example 1B], with 250 nM; and `CC1(C)CC(=O)N(C[C@H]2C[C@@H]2C(=O)NC2CC(C)(C)Oc3c(C(F)(F)F)ccc(F)c32)C(=N)N1` (stereo partly shown) [Example 99], with 130 nM; and `CC1[C@H](C(c2cccnc2)N2C(=N)NC(C)(C)CC2=O)[C@H]1C(=O)N[C@H]1CC(C)(C)Oc2ccccc21` (stereo partly shown) [Example 57B], with 100 nM.
For `CCC1(CC)CC(=O)N([C@H](CCOC)[C@H]2C[C@@H]2C(=O)N[C@H]2c3ccccc3OCC2(C)C)C(=N)N1` [Example 19B], the 50% effective concentration (EC50) was 4.2 nM.

The assay is the same for the next values; noted with them: Plasmodium falciparum, 72 h, Table 4; 72 hours growth, LDH readout; read-out: EC50 (Table 4).
For `CCC1(CC)CC(=O)N([C@H](CCOC)[C@H]2C[C@@H]2C(=O)NC2c3cc(Cl)ccc3OC(C)(C)[C@H]2O)C(=N)N1` (stereo partly shown) [Example 150], the EC50 came to 3.9 nM.
Still for that read-out and setting: then `CCC1(CC)CC(=O)N([C@H](CCOC)[C@H]2C[C@@H]2C(=O)N[C@H]2c3ccccc3OC(C)(C)[C@@H]2O)C(=N)N1` [Example 144], with 165 nM.
The same measure, in the same setting: under `CCC1(CC)CC(=O)N([C@H](CCOC)[C@H]2C[C@@H]2C(=O)NC2CC(C)(C)Oc3c(Cl)cccc32)C(=N)N1` (stereo partly shown) [Example 148A] stands 2.7 nM.

The assay is the same for the next values; noted with them: Table 3; 72 hours growth, LDH readout; read-out: EC50.
For the compound `CCC1C[C@H](NC(=O)[C@H]2C[C@@H]2CN2C(=N)NC(C)(C)CC2=O)c2ccccc2O1` (single isomer, unassigned) [Example 133B], the EC50 worked out at 100 nM.
Consider `CC(C)C1(C)CC(NC(=O)[C@H]2C[C@@H]2[C@@H](c2cccnc2)N2C(=N)NC(C)(C)CC2=O)c2ccccc2O1` (single isomer, unassigned) [Example 81C], for which the EC50 came to 0.9 nM.
Turning to `CC[C@]1(C)CC(=O)N([C@H](CCOC)[C@H]2C[C@@H]2C(=O)NC2CC(C)(C)Oc3ccc(C(F)(F)F)cc32)C(=N)N1` (single isomer, unassigned) [Example 127A], the EC50 is 1.1 nM.
On the same count and under the same terms, under `CC(C)C1(C)CC(NC(=O)[C@H]2C[C@@H]2CN2C(=N)NC(C)(C)CC2=O)c2ccccc2O1` (single isomer, unassigned) [Example 79B] stands 275 nM; under `CCC1(CC)CC(=O)N(C(c2cccnc2)[C@H]2C(C)[C@@H]2C(=O)N[C@H]2C[C@H](C(F)(F)F)Oc3ccccc32)C(=N)N1` (single isomer, unassigned) [Example 55A], 0.8 nM.
Regarding `CC[C@@]1(C)CC(=O)N(C(c2cncc(F)c2)[C@H]2C[C@@H]2C(=O)N[C@H]2CC(C)(C)Oc3ccc(F)cc32)C(=N)N1` (stereo partly shown) [Example 69C], the half-maximal effective concentration (EC50) was 0.8 nM.
On the same count and under the same terms, under `CC1(C)CC(=O)N([C@H](c2cccnc2)[C@H]2C[C@@H]2C(=O)NC2CC(C)(C)Oc3c(Cl)cccc32)C(=N)N1` (stereo partly shown) [Example 121B] stands 2 nM; under `CC1(C)CC(=O)N(C(c2cccnc2)[C@@H]2[C@@H](C(=O)N[C@H]3CC(C)(C)Oc4ccccc43)C2(C)C)C(=N)N1` (stereo partly shown) [Example 49B], 14 nM; under `COc1cccc2c1C(NC(=O)[C@H]1C[C@@H]1[C@@H](c1cccnc1)N1C(=N)NC(C)(C)CC1=O)CC(C)(C)O2` (stereo partly shown) [Example 96B], 3.3 nM.
`COCC[C@H]([C@H]1C[C@@H]1C(=O)NC1CC(C)(C)Oc2c(Cl)cc(Cl)cc21)N1C(=N)NC(C)(C)CC1=O` (stereo partly shown) [Example 106B]: the EC50 was 10 nM.
Same read-out and setting: under `CC1(C)CC(=O)N(C(c2cccc(C#N)c2)[C@H]2C[C@@H]2C(=O)NC2CC(C)(C)Oc3ccc(F)cc32)C(=N)N1` (stereo partly shown) [Example 53B] stands 2.1 nM; under `CC1(C)CC(=O)N([C@H](c2cccnc2)[C@H]2C[C@@H]2C(=O)NC2CC(C)(C)Oc3c(F)cccc32)C(=N)N1` (stereo partly shown) [Example 93B], 2.4 nM.
On the same count and under the same terms, under `CC[C@@]1(C)CC(=O)N(C(c2cncc(F)c2)[C@H]2C[C@@H]2C(=O)N[C@H]2CC(C)(C)Oc3ccc(F)cc32)C(=N)N1` (stereo partly shown) [Example 69B] stands 1.9 nM.
The same measure, in the same setting: then `CCC1(CC)CC(=O)N(C[C@H]2C(C)[C@@H]2C(=O)N[C@H]2c3ccccc3CC2(C)O)C(=N)N1` (single isomer, unassigned) [Example 29B], with 351 nM; and `CC1(C)CC(=O)N(C[C@H]2C[C@@H]2C(=O)NC2CC(C)(C)Oc3ccc(OC(F)(F)F)cc32)C(=N)N1` (stereo partly shown) [Example 125B], with 160 nM.
Turning to `COCC[C@H]([C@H]1C[C@@H]1C(=O)NC1CC(C)(C)Oc2c(F)cccc21)N1C(=N)NC(C)(C)CC1=O` (stereo partly shown) [Example 111B], the 50% effective concentration (EC50) came to 15 nM.
In the case of `CC1(C)CC(=O)N([C@H](c2cccnc2)[C@H]2C[C@@H]2C(=O)N[C@@H]2CC(C)(C)Oc3cccc(F)c32)C(=N)N1` [Example 86B], the EC50 is 2.8 nM.
Still for that read-out and setting: under `CC(C)C1(C)CC(NC(=O)[C@H]2C[C@@H]2[C@@H](c2cccnc2)N2C(=N)NC(C)(C)CC2=O)c2ccccc2O1` (single isomer, unassigned) [Example 81B] stands 1 nM.

Still in this assay, the particulars now being: Table 4; 72 hours growth, LDH readout; read-out: EC50 (Table 4).
Consider `CCC1(CC)CC(=O)N(C(CC(C)OC)[C@H]2C[C@@H]2C(=O)N[C@H]2CC(C)(C)Oc3ccccc32)C(=N)N1` (single isomer, unassigned) [Example 142C], for which the EC50 is 205 nM.
Take `CCC1(CC)CC(=O)N(C(CC(C)OC)[C@H]2C[C@@H]2C(=O)N[C@@H]2CC(C)(C)Oc3ccccc32)C(=N)N1` (single isomer, unassigned) [Example 143A]: the EC50 amounted to 4.6 nM.
